In patent publication US20240182442A1, “ANHYDROUS POLYMORPHS OF ANDROGEN RECEPTOR ANTAGONIST, PREPARATION METHOD THEREFOR, AND USE THEREOF” (SUZHOU KINTOR PHARMACEUTICALS, INC., priority 2021, published 2024):
Values belong to the molecule of their own block, whether it stands above or below them.

Assays:
[1] = Suspension competition test of mixed crystalline forms A/B/C/D in saturated solution (thermodynamic transition); assay type: physicochemical
Experimental: To study the thermodynamic transition relationship of the four anhydrous polymorphs (respectively corresponding to A/B/C/D), samples (each sample was about 5 mg) having crystalline forms A/B/C/D were mixed and added respectively under the conditions of 5° C./room temperature (about 20° C.)/50° C./90° C. to a saturated solution of the compound of formula I (for example, ethanol or methyl tert-butyl ether) (about 1.0 mL), and stirred (magnetic stirring, about 800 rpm). solid was separated (centrifugation, about 10000 rpm, 1 min), and XRPD test was performed.

[2] = Solid-state stability, one week storage, tested by XRPD and HPLC; assay type: physicochemical; details: for Purity (Peak area %) / Relative purity (%/Control): one week; for Purity (Peak area %): HPLC; for Relative purity (%/Control): vs 5° C. sealed control
Text: Samples were removed after one week, and the obtained samples were characterized and tested by XRPD and HPLC to respectively detect changes in crystalline form and purity.

[3] = Dynamic vapor sorption (DVS) hygroscopicity evaluation, with XRPD before and after; assay type: physicochemical
Experimental: The DVS curves were collected on a DVS Intrinsic Dynamic Moisture Sorption meter from SMS (Surface Measurement Systems). The relative humidity at 25° C. was corrected with the deliquescence points of LiCl, Mg (NO3)2 and KCl.

[4] = Pharmacokinetic study, skin application to SD rats; assay type: in vivo, SD rats (Sprague-Dawley rats); details: for ratio of AUC(0-t) on day 7 to day 1: 12 mg/kg skin application once a day for 7 days
Text: The obtained blood concentration data were simultaneously used to calculate the relevant pharmacokinetic parameters using the pharmacokinetic processing software WinNonlin v5.2 […] for plasma pharmacokinetic characterization analysis.

[5] = Heat treatment test under nitrogen protection (crystal transformation); assay type: physicochemical; details: for crystal transformation on heating: nitrogen
Text: At the same time, the above crystal transformation phenomenon can also be confirmed by the absorption/exothermic peaks appearing in FIG. 7 and FIG. 11.

Solid crystalline form after one week ([2]; 5° C., sealed (control)): Crystalline form D
Purity (Peak area %) ([2]; 5° C., sealed (control)): 99.9 Peak area %
Solid crystalline form after one week ([2]; 25° C./60% RH, open): Crystalline form D
Purity (Peak area %) ([2]; 25° C./60% RH, open): 99.9 Peak area %
Relative purity (%/Control) ([2]; 25° C./60% RH, open): 100.0 %/Control
Solid crystalline form after one week ([2]; 40° C./75% RH, open): Crystalline form D
Purity (Peak area %) ([2]; 40° C./75% RH, open): 99.9 Peak area %
Relative purity (%/Control) ([2]; 40° C./75% RH, open): 100.0 %/Control
hygroscopicity (conclusion in words) ([3]; DVS, 0% RH to 80% RH, 25° C.): almost no hygroscopicity
crystalline form before and after the DVS test (XRPD) ([3]; before vs after DVS experiment): maintained the same crystalline form
water absorbed (moisture absorption, DVS) ([3]; relative humidity increased from 0% RH to 80% RH, 25° C.): 0.14 wt %
ratio of AUC(0-t) on day 7 to day 1 ([4]; female SD rats): 0.942
ratio of AUC(0-t) on day 7 to day 1 ([4]; male SD rats): 1.30
accumulation after repeated administration ([4]; male and female SD rats, 12 mg/kg skin application, 7 days): no obvious accumulation
SMILES: COc1c(C#N)ccc(N2C(=O)C(C)(C)N(c3ccc(C)nc3)C2=S)c1F [crystalline form D, 4-[4,4-dimethyl-3-(6-methylpyridin-3-yl)-5-oxo-2-thioxoimidazolidin-1-yl]-3-fluoro-2-methoxybenzonitrile]
relative stability of the crystalline form ([1]; at room temperature): more stable than the crystalline forms A/B/C

relative stability of the crystalline form ([5]; under heating conditions): more stable than crystalline forms A/C
SMILES: COc1c(C#N)ccc(N2C(=O)C(C)(C)N(c3ccc(C)nc3)C2=S)c1F [crystalline form B, 4-[4,4-dimethyl-3-(6-methylpyridin-3-yl)-5-oxo-2-thioxoimidazolidin-1-yl]-3-fluoro-2-methoxybenzonitrile]

crystal transformation on heating ([5]; further heated to about 166° C. and cooled to room temperature): transformed into crystalline form B
crystal transformation on heating ([5]; heated to about 148° C.): transformed into crystalline forms B/D
SMILES: COc1c(C#N)ccc(N2C(=O)C(C)(C)N(c3ccc(C)nc3)C2=S)c1F [crystalline form C, 4-[4,4-dimethyl-3-(6-methylpyridin-3-yl)-5-oxo-2-thioxoimidazolidin-1-yl]-3-fluoro-2-methoxybenzonitrile]

crystal transformation by suspension agitation ([1]; less than 90° C.): transformed into the form D
crystal transformation on heating ([5]; heated to about 160° C. and then cooled to room temperature): transformed into crystalline form B
SMILES: COc1c(C#N)ccc(N2C(=O)C(C)(C)N(c3ccc(C)nc3)C2=S)c1F [crystalline form A, 4-[4,4-dimethyl-3-(6-methylpyridin-3-yl)-5-oxo-2-thioxoimidazolidin-1-yl]-3-fluoro-2-methoxybenzonitrile]
